Test results as given in patent US4570005A, “Process for the preparation of 2-arylpropyl ether or thioether derivatives” (priority 1980, dated 1986).

Assays:
plants of Solanacede = settings: Fenvalerate; general statement; cited from earlier work
[1] = Test 9: Toxicity Test (acute oral toxicity, mice); settings: mouse, in vivo, po
Description: (§1) A predetermined amount of a solution or suspension of a test compound in corn oil was orally administered to male mice having a body weight of 19 to 23 g (0.2 ml per 10 g of the body weight). After 7 days, the number of killed mice was counted and the influences on the mice were examined.

tobacco cutworm [2] = test: Test 2: Tobacco Cutworm Larva Dipping Test, mortality after 24 hours; assay type: in vivo; settings: 24 hours
In short: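 Second- and fifth-instar larvae dipped 5 s in a water dilution of an emulsifiable concentrate at 100 or 20 ppm, blotted, then held on artificial diet at 25° C. Dead and living larvae counted after 24 hours; mortality averaged over three cups.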

Test 8: Fish Toxicity = assay type: in vivo; settings: carp, water; concentration at which 1/2 of the test fishes were killed within 48 hours; read-out: Fish Toxicity, TLm48
Description: A water tank having a width of 60 cm, a length of 30 cm and a height of 40 cm was filled with water, and 10 yearling carps having a body length of about 5 cm were set free in the tank and adapted to the environment in the tank. A test compound was applied so that the concentration in water was 10, 1 or 0.1 ppm. After 48 hours, the numbers of killed and living carps were counted and the influences on the fishes were examined.

tobacco cutworm [3] = test: Test 1: Effect on Tobacco Cutworm (leaf immersion), mortality after 24 hours; assay type: in vivo; settings: second-instar larvae, 25° C
In short: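 Second-instar tobacco cutworm larvae were kept at 25 °C on air-dried sweet-potato leaves that had been immersed for 10 s in test dilutions of 100 or 20 ppm from an emulsifiable concentrate. Mortality was scored at 24 h as the mean of three cups.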

[4] = tested on: resistant green rice leafhopper (collected at Nakagawara); test: Test 3: Effect on Resistant Green Rice Leafhopper (collected at Nakagawara); assay type: in vivo, Nephotettix cincticeps Uhler (Green rice leafhopper); settings: Nephotettix cincticeps, 24 h, read-out: Mortality (%), Green Rice Leafhopper Collected at Nakagawara
In short: (§2)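 Ten adult females per pot, either resistant (Nakagawara) or sensitive (Chigasaki), were caged on air-dried rice seedlings (2–3 leaves) sprayed at 3 ml/pot with 100 or 20 ppm of an emulsifiable concentrate dilution. Dead and living insects were counted after 24 hours; mortality is the mean of three pots.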

[5] = tested on: sensitive green rice leafhopper (collected at Chigasaki); test: whole plant or invertebrate; assay type: in vivo; settings: Nephotettix cincticeps, sensitive female adults, 24 hours, read-out: Mortality (%), Green Rice Leafhopper Collected at Chigasaki
In short: as §2

two-spotted spider mite = test: Test 6: Effect on Two-Spotted Spider mite Adults; assay type: in vivo; settings: 100 ppm, adults, 24 hours, 25° C; for mortality at 100 ppm: Tetranychus urticae, read-out: Mortality (%)
green peach aphid = test: Test 5: Effect on Green Peach Aphid; assay type: in vivo; settings: Myzus persicae; 100 ppm; mortality class; 24 hours; read-out: Insecticidal Activity
In short: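 Eggplant seedlings with 3–4 leaves were infested with aphids and sprayed with a 100 ppm aqueous dilution of an emulsifiable concentrate, then kept in a glasshouse. Living insects were counted after 24 h. Mortality is averaged over three pots and graded A (>95%), B (80–95%), C (50–80%) or D (<50%).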

diamond back moth = test: Test 4: Effect on Diamond Back Moth; assay type: in vivo; settings: Plutella, third-instar larvae, 24 hours, read-out: Mortality (%)
In short: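 Compound formulated as an emulsifiable concentrate, diluted in water to 100 or 20 ppm and sprayed at 3 ml per cup onto cabbage leaves holding 10 third-instar larvae. Mortality counted after 24 hours; mean of three cups.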

German cockroach = test: Test 7: Effect on German Cockroach; assay type: in vivo; settings: Blattella germanica, male adults, agonized and killed after 24 hours, read-out: Mortality (%); for mortality at 10 mg/m2: 10 mg/m^2; for mortality at 50 mg/m2: 50 mg/m^2
In short: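 Petri dish floors were treated with 50 or 10 mg/m2 of compound (diluted emulsifiable concentrate) and air-dried. Ten male adult German cockroaches per dish were held at 25° C. Agonized and dead insects were counted after 24 hours, averaging two dishes.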

male mice = test: Test 9: Toxicity Test (acute oral toxicity, mice); settings: oral; corn oil; male mice; 7 days
Description: as §1

[6] = fifth-instar larvae, read-out: Motality (%), Fifth-Instar Larvae
[7] = second-instar larvae, read-out: Motality (%), Second-Instar Larvae

CC(C)C(C(=O)OC(C#N)c1cccc(Oc2ccccc2)c1)c1ccc(Cl)cc1 (stereo not drawn) [Fenvalerate]
phyto-toxicity to plants of Solanacede (plants of Solanacede): observed

CC(C)(COCc1cccc(Oc2ccc(F)cc2)c1)c1ccc(Cl)cc1 [Compound 6, 3-(4-Fluorophenoxy)benzyl 2-(4-chlorophenyl)-2-methylpropyl ether]
LD50 at 168 h [1]: > 500 mg/kg
mortality at 20 ppm (tobacco cutworm [2]; [6]): 100%
mortality at 20 ppm (tobacco cutworm [2]; [7]): 100%
mortality at 100 ppm (tobacco cutworm [2]; [6]): 100%
mortality at 100 ppm (tobacco cutworm [2]; [7]): 100%
LC50 at 48 h (Test 8: Fish Toxicity): > 10 µg/mL
mortality at 20 ppm (tobacco cutworm [3]): 100%
mortality at 100 ppm (tobacco cutworm [3]): 100%
mortality at 20 ppm [4]: 100%
mortality at 100 ppm [4]: 100%
mortality at 20 ppm [5]: 100%
mortality at 100 ppm [5]: 100%
mortality at 100 ppm (two-spotted spider mite): 100%
mortality at 100 ppm (green peach aphid): > 95%
mortality at 20 ppm (diamond back moth): 100%
mortality at 100 ppm (diamond back moth): 100%
mortality at 10 mg/m2 (German cockroach): 100%
mortality at 50 mg/m2 (German cockroach): 100%

CCC(C)(COCc1cccc(Oc2ccccc2)c1)c1ccc(Cl)cc1 (stereo not drawn) [Compound 50, 3-Phenoxybenzyl 2-(4-chlorophenyl)-2-ethylpropyl ether]
LD50 at 168 h [1]: > 500 mg/kg
mortality at 20 ppm (tobacco cutworm [2]; [6]): 90%
mortality at 20 ppm (tobacco cutworm [2]; [7]): 100%
mortality at 100 ppm (tobacco cutworm [2]; [6]): 100%
mortality at 100 ppm (tobacco cutworm [2]; [7]): 100%
LC50 at 48 h (Test 8: Fish Toxicity): > 10 µg/mL
mortality at 20 ppm (tobacco cutworm [3]): 100%
mortality at 100 ppm (tobacco cutworm [3]): 100%
mortality at 20 ppm [4]: 90%
mortality at 100 ppm [4]: 100%
mortality at 20 ppm [5]: 80%
mortality at 100 ppm [5]: 100%
mortality at 100 ppm (two-spotted spider mite): 100%
mortality at 100 ppm (green peach aphid): > 95%
mortality at 20 ppm (diamond back moth): 100%
mortality at 100 ppm (diamond back moth): 100%
mortality at 10 mg/m2 (German cockroach): 100%
mortality at 50 mg/m2 (German cockroach): 100%

Pyrethrin [Comparative Compound (c), reference compound]
Acute Toxicity at Oral Administration, LD-50 (male mice): 340 mg/kg
Mortality (%) (two-spotted spider mite): 0%
